The supplement of paper PMC10307832

Legend:
Test in all cases: relative viability (nuclei count vs DMSO), 5 days (fraction); higher = more cells survive
[1] = tested on: NCI-H2085
Summary of the method: (§1)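 Dosing by pin tool came one day after lung cancer cell lines were seeded in 1536-well plates, using either one drug or a fixed anchor-drug dose plus five library-drug doses (not always all listed) in √10 steps. After 5 days, nuclei were counted on 4× images. Relative viability is treated-well nuclei count divided by vehicle-well nuclei count, and values are medians of duplicate plates.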

[2] = tested on: LCLC-103H
Summary of the method: as §1

[3] = tested on: NCI-H838
Summary of the method: as §1

[4] = tested on: NCI-H1395
Summary of the method: as §1

[5] = tested on: NCI-H2405
Summary of the method: as §1

[6] = tested on: LU99A
Summary of the method: as §1

[7] = tested on: EPLC-272H
Summary of the method: as §1

[8] = tested on: NCI-H650
Summary of the method: as §1

[9] = tested on: NCI-H2023
Summary of the method: as §1

[10] = tested on: NCI-H1793
Summary of the method: as §1

[11] = tested on: NCI-H1563
Summary of the method: as §1

[12] = tested on: NCI-H2087
Summary of the method: as §1

[13] = tested on: HCC-827
Summary of the method: as §1

[14] = tested on: COR-L23
Summary of the method: as §1

[15] = tested on: HCC-44
Summary of the method: as §1

[16] = tested on: SK-MES-1
Summary of the method: as §1

[17] = tested on: EMC-BAC-2
Summary of the method: as §1

[18] = tested on: NCI-H1944
Summary of the method: as §1

[19] = tested on: NCI-H520
Summary of the method: as §1

[20] = tested on: NCI-H1651
Summary of the method: as §1

[21] = tested on: H3255
Summary of the method: as §1

SMILES: CC(=O)O[C@@]12CO[C@@H]1C[C@H](O)[C@@]1(C)C(=O)[C@H](O)C3=C(C)[C@@H](OC(=O)[C@H](O)[C@@H](NC(=O)OC(C)(C)C)c4ccccc4)C[C@@](O)([C@@H](OC(=O)c4ccccc4)[C@H]21)C3(C)C [Docetaxel] + C[C@]1(O)C[C@@H](c2nc(-c3ccc4ccc(-c5ccccc5)nc4c3)c3c(N)nccn32)C1 [Linsitinib] (partner 1 µM)
- relative viability ([1]; first compound 0.0002 µM): 0.868
- relative viability ([1]; first compound 0.000632 µM): 0.888
- relative viability ([1]; first compound 0.002 µM): 0.652
- relative viability ([1]; first compound 0.006325 µM): 0.576
- relative viability ([1]; first compound 0.02 µM): 0.276
- relative viability ([2]; first compound 0.0002 µM): 0.934
- relative viability ([2]; first compound 0.000632 µM): 1.18
- relative viability ([2]; first compound 0.002 µM): 0.919
- relative viability ([2]; first compound 0.006325 µM): 0.479
- relative viability ([2]; first compound 0.02 µM): 0.503
- relative viability ([3]; first compound 0.0002 µM): 0.98
- relative viability ([3]; first compound 0.000632 µM): 1.1
- relative viability ([3]; first compound 0.002 µM): 0.247
- relative viability ([3]; first compound 0.006325 µM): 0.166
- relative viability ([3]; first compound 0.02 µM): 0.145
- relative viability ([4]; first compound 0.0002 µM): 1.05
- relative viability ([4]; first compound 0.000632 µM): 1.19
- relative viability ([4]; first compound 0.002 µM): 0.787
- relative viability ([4]; first compound 0.006325 µM): 0.431
- relative viability ([4]; first compound 0.02 µM): 0.336
- relative viability ([5]; first compound 0.0002 µM): 0.95
- relative viability ([5]; first compound 0.000632 µM): 0.913
- relative viability ([5]; first compound 0.002 µM): 0.667
- relative viability ([5]; first compound 0.006325 µM): 0.438
- relative viability ([5]; first compound 0.02 µM): 0.316
- relative viability ([6]; first compound 0.0002 µM): 0.52
- relative viability ([6]; first compound 0.000632 µM): 0.458
- relative viability ([6]; first compound 0.002 µM): 0.356
- relative viability ([6]; first compound 0.006325 µM): 0.262
- relative viability ([6]; first compound 0.02 µM): 0.169
- relative viability ([7]; first compound 0.0002 µM): 1.08
- relative viability ([7]; first compound 0.000632 µM): 0.954
- relative viability ([7]; first compound 0.002 µM): 0.54
- relative viability ([7]; first compound 0.006325 µM): 0.126
- relative viability ([7]; first compound 0.02 µM): 0.0815
- relative viability ([8]; first compound 0.0002 µM): 0.657
- relative viability ([8]; first compound 0.000632 µM): 0.341
- relative viability ([8]; first compound 0.002 µM): 0.312
- relative viability ([8]; first compound 0.006325 µM): 0.255
- relative viability ([8]; first compound 0.02 µM): 0.152
- relative viability ([9]; first compound 0.0002 µM): 0.703
- relative viability ([9]; first compound 0.000632 µM): 0.72
- relative viability ([9]; first compound 0.002 µM): 0.144
- relative viability ([9]; first compound 0.006325 µM): 0.159
- relative viability ([9]; first compound 0.02 µM): 0.0739
- relative viability ([10]; first compound 0.0002 µM): 1.01
- relative viability ([10]; first compound 0.000632 µM): 0.939
- relative viability ([10]; first compound 0.002 µM): 0.666
- relative viability ([10]; first compound 0.006325 µM): 0.352
- relative viability ([10]; first compound 0.02 µM): 0.218
- relative viability ([11]; first compound 0.0002 µM): 1.19
- relative viability ([11]; first compound 0.000632 µM): 1.15
- relative viability ([11]; first compound 0.002 µM): 1.05
- relative viability ([11]; first compound 0.006325 µM): 0.988
- relative viability ([11]; first compound 0.02 µM): 0.617
- relative viability ([12]; first compound 0.0002 µM): 0.848
- relative viability ([12]; first compound 0.000632 µM): 0.68
- relative viability ([12]; first compound 0.002 µM): 0.301
- relative viability ([12]; first compound 0.006325 µM): 0.326
- relative viability ([12]; first compound 0.02 µM): 0.156
- relative viability ([13]; first compound 0.0002 µM): 0.971
- relative viability ([13]; first compound 0.000632 µM): 0.927
- relative viability ([13]; first compound 0.002 µM): 0.892
- relative viability ([13]; first compound 0.006325 µM): 0.438
- relative viability ([13]; first compound 0.02 µM): 0.347
- relative viability ([14]; first compound 0.0002 µM): 0.813
- relative viability ([14]; first compound 0.000632 µM): 0.722
- relative viability ([14]; first compound 0.002 µM): 0.259
- relative viability ([14]; first compound 0.006325 µM): 0.101
- relative viability ([14]; first compound 0.02 µM): 0.0798
- relative viability ([15]; first compound 0.0002 µM): 0.608
- relative viability ([15]; first compound 0.000632 µM): 0.747
- relative viability ([15]; first compound 0.002 µM): 0.589
- relative viability ([15]; first compound 0.006325 µM): 0.201
- relative viability ([15]; first compound 0.02 µM): 0.106
- relative viability ([16]; first compound 0.0002 µM): 1.05
- relative viability ([16]; first compound 0.000632 µM): 0.967
- relative viability ([16]; first compound 0.002 µM): 0.634
- relative viability ([16]; first compound 0.006325 µM): 0.26
- relative viability ([16]; first compound 0.02 µM): 0.177
- relative viability ([17]; first compound 0.0002 µM): 0.799
- relative viability ([17]; first compound 0.000632 µM): 0.665
- relative viability ([17]; first compound 0.002 µM): 0.463
- relative viability ([17]; first compound 0.006325 µM): 0.31
- relative viability ([17]; first compound 0.02 µM): 0.207
- relative viability ([18]; first compound 0.0002 µM): 1.11
- relative viability ([18]; first compound 0.000632 µM): 1.13
- relative viability ([18]; first compound 0.002 µM): 1.18
- relative viability ([18]; first compound 0.006325 µM): 0.349
- relative viability ([18]; first compound 0.02 µM): 0.208
- relative viability ([19]; first compound 0.0002 µM): 1.06
- relative viability ([19]; first compound 0.000632 µM): 0.887
- relative viability ([19]; first compound 0.002 µM): 0.277
- relative viability ([19]; first compound 0.006325 µM): 0.182
- relative viability ([19]; first compound 0.02 µM): 0.133
- relative viability ([20]; first compound 0.0002 µM): 0.876
- relative viability ([20]; first compound 0.000632 µM): 0.746
- relative viability ([20]; first compound 0.002 µM): 0.229
- relative viability ([20]; first compound 0.006325 µM): 0.112
- relative viability ([20]; first compound 0.02 µM): 0.117
- relative viability ([21]; first compound 0.0002 µM): 0.824
- relative viability ([21]; first compound 0.000632 µM): 0.866
- relative viability ([21]; first compound 0.002 µM): 0.516
- relative viability ([21]; first compound 0.006325 µM): 0.223
- relative viability ([21]; first compound 0.02 µM): 0.209
